Converted amounts (≈) assume the structure as drawn.
Experiments:
[1] = tested on: pS6K1 (p-p70 S6 Kinase (Thr389)) in MCF-7 cells; test: AlphaLISA Ultra pS6K1 Assay; format: cell-based; conditions: Homo sapiens, 1.5 h; MCF7 cells, 90 min
Method in brief: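 MCF-7 cells were seeded for 20–24 h, refed with fresh medium for 2 h, then treated with compound for 90 min at 0.5% final DMSO. Lysates were frozen at −80 °C, thawed and assayed by AlphaLISA with acceptor then donor beads, 2 h each.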

[2] = Solubility in 100 mM phosphate buffer (pH 7.4); format: physicochemical; conditions: pH 7.4, aqueous buffer
Text: The compound numbers correspond to the compound numbers in Table 1.

[3] = tested on: pAKT (p-Akt 1/2/3 (Ser473)) in MCF-7 cells; test: AlphaLISA Ultra pAKT Assay; format: cell-based; conditions: Homo sapiens, 1.5 h; MCF7 cells, 90 min
Method: AlphaLISA Ultra pAKT Assay
1. MCF-7 cells in Corning 3701 plate and incubate for 20˜24 hour.
16,000˜20,000 cells will be seeded in 36 μL medium per well.
2. Change the culture medium with fresh medium and incubate for another 90 minutes.
3. […]
4. Aspirate […] by HAMILTON, 10 μL rest per well.
5. Add 10 μL 2× lysis buffer using HAMILTON; total volume in wells is 20 μL. Allow cells to shake for 30 min. Cover plate by plastic foil and store plate at −80° C. up to analysis.
6. Thaw cell lysate at RT and transfer 10 ul lysate to assay plate (Optiplate-384).
7. Add 5 μL acceptor beads into assay plate and incubation for 2 hours
8. Add 5 μL donor beads and incubation for 2 hours
9. Count the plate by EnSpire Multimode Plate Reader

mTORC1 over mTORC2 = test: mTORC1 selectivity over mTORC2 at 24 hrs (Western blot based pS6K1 and pAKT assay); format: cell-based
[4] = tested on: 4E-BP1 phosphorylation in PC3 cells; test: Western blot, 4E-BP1 phosphorylation in PC3 cells; format: cell-based; conditions: 24 hours
[5] = tested on: mTORC1 pathway (pS6K1 T389) in PC3 cells; test: Western blot, mTORC1 pathway (pS6K1) in PC3 cells; format: cell-based; conditions: PC3 cells, 24 hours
Method: (§1) Western Blot Based pS6K1 and pAKT Assay at 24 and 48 Hour Timepoints
(§2) 1. Seed six well plate with 500,000 PC3 cells per well and incubate for 20˜24 hour.
(§3) 2. Add compounds into the cell plate. Incubate for 24 to 48 hours.
(§4) 4. Plate is placed on ice and the media is removed via aspiration. The wells are washed with 1 mL of 1× PBS and then fully aspirated.
(§5) 5. 110 μL of 1% Triton Lysis Buffer is added and each well is scraped vigorously.
(§6) 6. Cell homogenates are transferred to 1.5 mL eppendorf tubes on ice and spun down at 4° C. for 10 minutes at 10,000 rpm.
(§7) 9. The membranes were washed 3× with TBS-T with a 5 minute incubation between each wash then incubated with secondary antibody (LiCor IRDye 800 Donkey Anti Rabbit) for at least 30 minutes.
(§8) 10. The membranes were washed 3× with TBS-T with a 5 minute incubation between each wash.
(§9) 11. The gels were then incubated for 5 minutes with PBS at room temperature then imaged using a Li-Cor.
(§10) The methods employed were substantially similar to those described above. Compounds were evaluated in PC3 cells, Jurkat cells, wild-type mouse embryotic fibroblast (MEF) cells, tuberous sclerosis 2 (TSC2) negative (TSC −/−) MEF cells, and tuberous sclerosis 2 (TSC2) positive (TSC +/+) MEF cells. Cells were incubated with compounds of the present invention for various time periods (e.g., 5 minutes, 15 minutes, 30 minutes, 90 minutes, 24 hours, or 48 hours), and evaluated according to known methodologies, such as those herein described.

[6] = tested on: mTORC2 pathway (Akt phosphorylation) in PC3 cells; test: Western blot, mTORC2 pathway (pAkt) in PC3 cells; format: cell-based; conditions: 24 hours
Method: as §1, §2, §3, §4, §5, §6, §7, §8, §9, §10

SMILES: CO[C@@H]1C[C@H](C[C@@H](C)[C@@H]2CC(=O)[C@H](C)/C=C(\C)[C@@H](O)[C@@H](OC)C(=O)[C@H](C)C[C@H](C)/C=C/C=C/C=C(\C)C(OCC3COCCOCCOCCOCCO3)C[C@@H]3CC[C@@H](C)[C@@](O)(O3)C(=O)C(=O)N3CCCC[C@H]3C(=O)O2)CC[C@H]1O (stereo partly shown) [I-3]
- IC50 [1]: 0.1 to 1 nM
- solubility [2]: 30 to 60 µM (≈ 34 to 67.9 µg/mL)
- IC50 [3]: ≥ 100 nM
- mTORC1 selective @ 24 hrs (mTORC1 over mTORC2): YES

SMILES: COCCOCCOC1C[C@@H]2CCC(C)C(O)(O2)C(=O)C(=O)N2CCCC[C@H]2C(=O)OC(C(C)CC2CCC(O)C(OC)C2)CC(=O)C(C)/C=C(\C)C(O)C(OC)C(=O)C(C)CC(C)/C=C/C=C/C=C/1C (stereo partly shown) [I-17]
- IC50 [1]: 0.1 to 1 nM
- solubility [2]: 30 to 60 µM (≈ 30.1 to 60.1 µg/mL)
- IC50 [3]: ≥ 100 nM
- mTORC1 selective @ 24 hrs (mTORC1 over mTORC2): YES

SMILES: CO[C@@H]1C[C@H](C[C@@H](C)[C@@H]2CC(=O)[C@H](C)/C=C(\C)[C@@H](O)[C@@H](OC)C(=O)[C@H](C)C[C@H](C)/C=C/C=C/C=C(\C)[C@H](OCCOCCO)C[C@@H]3CC[C@@H](C)[C@@](O)(O3)C(=O)C(=O)N3CCCC[C@H]3C(=O)O2)CC[C@H]1O [I-19]
- IC50 [1]: < 0.1 nM
- solubility [2]: 30 to 60 µM (≈ 29.6 to 59.3 µg/mL)
- IC50 [3]: ≥ 100 nM
- mTORC1 selective @ 24 hrs (mTORC1 over mTORC2): YES
- selectivity for mTORC1 over mTORC2 as measured by the impact on pAKT (mTORC1 over mTORC2; extended periods of time (e.g., 24 hours)): marked selectivity

SMILES: COCCOCCOCCOC1C[C@@H]2CC[C@@H](C)[C@@](O)(O2)C(=O)C(=O)N2CCCC[C@H]2C(=O)O[C@H]([C@H](C)C[C@@H]2CC[C@@H](O)[C@H](OC)C2)CC(=O)[C@H](C)/C=C(\C)[C@@H](O)[C@@H](OC)C(=O)[C@H](C)C[C@H](C)/C=C/C=C/C=C/1C (stereo partly drawn) [I-27, (22E,24E,26E,27E,35R,36S,37R,38R,39S,42S,44S,46R,47R,56R)-46,56-dihydroxy-44-[(1R)-2-[(1S, 2R,3R)-3-hydroxy-2-methoxy-cyclohexyl]-1-methyl-ethyl]-47-methoxy-43-[2-[2-(2-methoxyethoxy)ethoxy]ethoxy]-35,36,37,38,48,49-hexamethyl-66,67-dioxa-57-azatricyclohexatriaconta-22, 24,26(48),27(49)-tetraene-50,51,52,53,54-pentone]
- IC50 [1]: 0.1 to 1 nM
- solubility [2]: 30 to 60 µM (≈ 31.4 to 62.8 µg/mL)
- IC50 [3]: ≥ 100 nM
- mTORC1 selective @ 24 hrs (mTORC1 over mTORC2): YES

SMILES: CO[C@@H]1C[C@H](C[C@@H](C)[C@@H]2CC(=O)[C@H](C)/C=C(\C)[C@@H](O)[C@@H](OC)C(=O)[C@H](C)C[C@H](C)/C=C/C=C/C=C(\C)C(OCC(CO)CO)C[C@@H]3CC[C@@H](C)[C@@](O)(O3)C(=O)C(=O)N3CCCC[C@H]3C(=O)O2)CC[C@H]1O (stereo partly drawn) [I-31, (21E,23E,25E,26E,31R,32S,33R,34R,36R,38S,41S,42R,43R,53S)-42, 53-dihydroxy-40-[3-hydroxy-2-(hydroxymethyl)propoxy]-41-[(1S)-2-[(1S,3R, 4R)-4-hydroxy-3-methoxy-cyclohexyl]-1-methyl-ethyl]-43-methoxy-31,32,33,34,44,45-hexamethyl-65, 66-dioxa-54-azatricyclohexatriaconta-21,23,25(44),26(45)-tetraene-46,47,48,49,50-pentone]
- IC50 [1]: 0.1 to 1 nM
- solubility [2]: > 60 µM
- IC50 [3]: ≥ 100 nM
- mTORC1 selective @ 24 hrs (mTORC1 over mTORC2): YES

SMILES: CO[C@@H]1C[C@H](C[C@@H](C)[C@@H]2CC(=O)[C@H](C)/C=C(\C)[C@@H](O)[C@@H](OC)C(=O)[C@H](C)C[C@H](C)/C=C/C=C/C=C(\C)C(OCCOCCOCCO)C[C@@H]3CC[C@@H](C)[C@@](O)(O3)C(=O)C(=O)N3CCCC[C@H]3C(=O)O2)CC[C@H]1OCCO (stereo partly drawn) [I-32, (21E,23E,25E,26E,36R,37S,38R,39R,40S,43S,45S,47R,48R,57R)-47, 57-dihydroxy-44-[2-[2-(2-hydroxyethoxy)ethoxy]ethoxy]-45-[(1R)-2-[(1S,2R, 3R)-3-(2-hydroxyethoxy)-2-methoxy-cyclohexyl]-1-methyl-ethyl]-48-methoxy-36,37,38,39,49,50-hexamethyl-68, 69-dioxa-58-azatricyclohexatriaconta-21,23,25(49),26(50)-tetraene-51,52,53,54,55-pentone]
- IC50 [1]: 0.1 to 1 nM
- solubility [2]: > 60 µM
- IC50 [3]: ≥ 100 nM
- mTORC1 selective @ 24 hrs (mTORC1 over mTORC2): YES

SMILES: CO[C@@H]1C[C@H](C[C@@H](C)[C@@H]2CC(=O)[C@H](C)/C=C(\C)[C@@H](O)[C@@H](OC)C(=O)[C@H](C)C[C@H](C)/C=C/C=C/C=C(\C)C(OCCOCCOCCOCCOCCOCCO)C[C@@H]3CC[C@@H](C)[C@@](O)(O3)C(=O)C(=O)N3CCCC[C@H]3C(=O)O2)CC[C@H]1O (stereo partly drawn) [I-33, (21E,23E,25E,26E,40R,41S,42R,43R,45R,47S,50S,51R,52R, 61S)-51,6I-dihydroxy-49-[2-[2-[2-[2-[2-(2-hydroxyethoxy)ethoxy]ethoxy]ethoxy]ethoxy]ethoxy]-50-[(1S)-2-[(1S, 3R,4R)-4-hydroxy-3-methoxy-cyclohexyl]-1-methyl-ethyl]-52-methoxy-40, 41,42,43,53,54-hexamethyl-72,73-dioxa-62-azatricyclohexatriaconta-21, 23,25(53),26(54)-tetraene-55,56,57,58,59-pentone]
- IC50 [1]: 1 to 10 nM
- solubility [2]: > 60 µM
- IC50 [3]: ≥ 100 nM
- mTORC1 selective @ 24 hrs (mTORC1 over mTORC2): YES

SMILES: CO[C@@H]1C[C@H](C[C@@H](C)[C@@H]2CC(=O)[C@H](C)/C=C(\C)[C@@H](O)[C@@H](OC)C(=O)[C@H](C)C[C@H](C)/C=C/C=C/C=C(\C)C(OCCCO)C[C@@H]3CC[C@@H](C)[C@@](O)(O3)C(=O)C(=O)N3CCCC[C@H]3C(=O)O2)CC[C@H]1O (stereo partly shown) [I-34]
- IC50 [1]: 0.1 to 1 nM
- solubility [2]: 30 to 60 µM (≈ 28.7 to 57.5 µg/mL)
- IC50 [3]: ≥ 100 nM
- mTORC1 selective @ 24 hrs (mTORC1 over mTORC2): NO

SMILES: CO[C@@H]1C[C@H](C[C@@H](C)[C@@H]2CC(=O)[C@H](C)/C=C(\C)[C@@H](O)[C@@H](OC)C(=O)[C@H](C)C[C@H](C)/C=C/C=C/C=C(\C)C(OCCOCCO)C[C@@H]3CC[C@@H](C)[C@@](O)(O3)C(=O)C(=O)N3CCCC[C@H]3C(=O)O2)CC[C@H]1O (stereo partly shown) [I-37]
- IC50 [1]: 1 to 10 nM
- solubility [2]: 30 to 60 µM (≈ 29.6 to 59.3 µg/mL)
- IC50 [3]: ≥ 100 nM
- mTORC1 selective @ 24 hrs (mTORC1 over mTORC2): YES

SMILES: CO[C@@H]1C[C@H](C[C@@H](C)[C@@H]2CC(=O)[C@H](C)/C=C(\C)[C@@H](O)[C@@H](OC)C(=O)[C@H](C)C[C@H](C)/C=C/C=C/C=C(\C)C(OCCO)C[C@@H]3CC[C@@H](C)[C@@](O)(O3)C(=O)C(=O)N3CCCC[C@H]3C(=O)O2)CC[C@H]1O (stereo partly drawn) [I-38, (21E,23E,25E,26E,30R,31S,32R,33R,35R,37S,40S,41R,42R,51S)-41, 51-dihydroxy-39-(2-hydroxyethoxy)-40-[(1S)-2-[(1S,3R,4R)-4-hydroxy-3-methoxy-cyclohexyl]-1-methyl-ethyl]-42-methoxy-30, 31,32,33,43,44-hexamethyl-62,63-dioxa-52-azatricyclohexatriaconta-21, 23,25(43),26(44)-tetraene-45,46,47,48,49-pentone]
- IC50 [1]: < 0.1 nM
- solubility [2]: 30 to 60 µM (≈ 28.3 to 56.7 µg/mL)
- IC50 [3]: ≥ 100 nM
- mTORC1 selective @ 24 hrs (mTORC1 over mTORC2): NO

SMILES: CO[C@@H]1C[C@H](C[C@@H](C)[C@@H]2CC(=O)[C@H](C)/C=C(\C)[C@@H](O)[C@@H](OC)C(=O)[C@H](C)C[C@H](C)/C=C/C=C/C=C(\C)C(OCCS(=O)(=O)CCS(=O)(=O)CCO)C[C@@H]3CC[C@@H](C)[C@@](O)(O3)C(=O)C(=O)N3CCCC[C@H]3C(=O)O2)CC[C@H]1O (stereo partly drawn) [I-102, (21E,23E,25E,26E,34R,35S,36R,37R,39R,41S,44S,45R,46R,55S)-45, 55-dihydroxy-43-[2-[2-(2-hydroxyethylsulfonyl)ethylsulfonyl]ethoxy]-44-[(1S)-2-[(1S,3R, 4R)-4-hydroxy-3-methoxy-cyclohexyl]-1-methyl-ethyl]-46-methoxy-34,35,36,37,47,48-hexamethyl-70, 71-dioxa-56-azatricyclohexatriaconta-21,23,25(47),26(48)-tetraene-49,50,51,52,53-pentone]
- IC50 [1]: 10 to 100 nM
- inhibition of 4E-BP1 phosphorylation [4]: no inhibition
- inhibition of the mTORC1 pathway [5]: strong inhibition
- inhibition of mTORC2 (Akt phosphorylation) [6]: do not inhibit
- mTORC1 selective @ 24 hrs (mTORC1 over mTORC2): YES
